Reference: PMC5432571 (Frontiers in Molecular Neuroscience, 2017)

Assays:
[1] = target: T1, α1β GlyR (Homo sapiens, UniProt P23415+P48167); experiment: Whole-cell patch-clamp of glycine-induced currents, heteromeric α1β GlyR expressed in CHO cells; type: cell-based; details: PTX 20 μM; glycine 30 μM; Vhold −30 mV
T1 construct: expressed in transfected cells; host or cells: CHO cells
Description: (§1) The experiments were carried out on cultured Chinese hamster ovary (CHO) cells obtained from the American Type Tissue Culture Collection (ATCC, Molsheim, France) that were maintained in culture conditions as previously described (Mukhtarov et al., [2013]; Maleeva et al., [2015]).
(§2) One day before transfection, cells were plated on the cover slips (12 mm in diameter) and placed inside 35-mm cell culture dishes with 2 ml of medium. Transfection was performed using the Lipofectamine 3000 protocol (Life Technology, USA). To facilitate identification of transfected cells a green fluorescent protein (GFP) was added to the transfection mixture. For expression of functional heteromeric receptors, cells were simultaneously transfected with cDNAs of α and β subunits in the ratio 1:10. Three hours after the initial exposure of cells to the cDNAs the culture medium was replaced with that containing strychnine (1 μM), which prevents spontaneous activation of GlyRs. Electrophysiological recordings were performed in the fluorescent cells 24–72 h after transfection.
(§3) Whole-cell and outside-out recordings were performed at room temperature (20–25°C) using an EPC-9 amplifier (HEKA Elektronik, Germany). Cells were continuously superfused with external solution containing (mM): NaCl 140, CaCl2 2, KCl 2.8, MgCl2 4, HEPES 20, glucose 10; pH 7.4; 320–330 mOsm. Intracellular solution used for filling recording patch pipettes contained (mM): CsCl 140, CaCl2 6, MgCl2 2, MgATP 2, NaGTP 0.4, HEPES/CsOH 10, BAPTA (tetrapotassium salt) 2; pH 7.3; 290 mOsm. Two different protocols of solutions application were used in this study. […] A “ramp protocol” implies the gradual change of Vhold alternately from −80 to +80 mV and from +80 to −80 mV during 1 s, Vhold was fixed at −80 or +80 mV at the beginning and at the end of the ramp for 500 ms (Figure 2B).
(§4) Recording pipettes were pulled from borosilicate glass capillaries (Harvard Apparatus Ltd, USA) and had resistances of 5–10 MOhm. For the rapid replacement of the solutions, the fast application system was used. Three parallel rectangular tubes (100 × 100 μm) were positioned 40–50 μm above the recorded cell. The movement of the tubes was controlled by a computer-driven fast exchange system (SF 77A Perfusion Fast-Step, Warner, USA) allowing a 10–90% solution exchange in 3–5 ms, as measured by open electrode controls (1/10 external solution/water). Cells with low input resistance (<150 MOhm) and a rapid run-down (>30% with repetitive application) were excluded from analysis.
(§5) Electrophysiological recordings were performed using PatchMaster (HEKA Electronic, Germany) software.

[2] = target: T2, homomeric α1 GlyR (Homo sapiens, UniProt P23415); experiment: Whole-cell patch-clamp of glycine-induced currents, α1 GlyR expressed in CHO cells; type: cell-based; details: PTX 20 μM; glycine 30 μM; Vhold −30 mV
T2 construct: expressed in transfected cells; host or cells: CHO cells
T2 sequence (P23415 29-449 isoform P23415-2 limits assumed): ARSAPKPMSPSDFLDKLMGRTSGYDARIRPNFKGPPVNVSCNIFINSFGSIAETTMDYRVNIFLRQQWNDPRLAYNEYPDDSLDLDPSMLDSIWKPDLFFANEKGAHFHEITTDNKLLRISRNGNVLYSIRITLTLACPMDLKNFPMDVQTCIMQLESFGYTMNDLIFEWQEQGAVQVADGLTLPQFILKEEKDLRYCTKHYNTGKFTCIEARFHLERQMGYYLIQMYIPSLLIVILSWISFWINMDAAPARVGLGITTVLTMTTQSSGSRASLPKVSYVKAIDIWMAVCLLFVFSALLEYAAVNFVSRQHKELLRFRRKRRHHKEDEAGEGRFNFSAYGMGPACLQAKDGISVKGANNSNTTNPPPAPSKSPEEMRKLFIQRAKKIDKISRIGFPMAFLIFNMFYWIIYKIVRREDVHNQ
Description: as §1, §2, §3, §4, §5
(§6) The fractional electrical distance from the external side of the membrane (δ) at which bound NFA blocked the current was calculated using the Woodhull equation: IC50(V)=IC50(0) exp (−δFV/RT), where IC50(V) is IC50 at the given membrane potential, IC50(0) – at 0 mV, V – membrane potential and F, R, T have their usual meanings. δ was determined from a plot of IC50 values against membrane potential.

[3] = target: T3, α2 GlyR (Homo sapiens, UniProt P23416); experiment: Whole-cell patch-clamp of glycine-induced currents, α2 GlyR expressed in CHO cells; type: cell-based; details: PTX 20 μM; glycine 30 μM; Vhold −30 mV
T3 construct: expressed in transfected cells; host or cells: CHO cells
T3 sequence (P23416 28-452 isoform P23416-2 limits assumed): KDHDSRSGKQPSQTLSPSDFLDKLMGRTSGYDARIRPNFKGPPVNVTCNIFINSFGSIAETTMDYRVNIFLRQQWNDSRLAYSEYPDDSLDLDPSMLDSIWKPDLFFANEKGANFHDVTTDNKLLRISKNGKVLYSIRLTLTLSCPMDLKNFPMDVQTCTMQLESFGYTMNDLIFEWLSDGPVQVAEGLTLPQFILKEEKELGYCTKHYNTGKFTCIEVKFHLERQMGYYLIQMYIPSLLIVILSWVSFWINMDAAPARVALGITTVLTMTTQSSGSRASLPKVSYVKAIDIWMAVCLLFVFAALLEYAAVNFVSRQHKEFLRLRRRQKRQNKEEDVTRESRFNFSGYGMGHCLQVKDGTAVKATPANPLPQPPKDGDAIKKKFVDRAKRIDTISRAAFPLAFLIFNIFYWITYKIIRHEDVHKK
Description: as §1, §2, §3, §4, §5, §6

[4] = target: T4, α2β GlyR (Homo sapiens, UniProt P23416+P48167); experiment: Whole-cell patch-clamp of glycine-induced currents, heteromeric α2β GlyR expressed in CHO cells; type: cell-based; details: PTX 20 μM; glycine 30 μM; Vhold −30 mV
T4 construct: expressed in transfected cells; host or cells: CHO cells
T4 sequence (P48167 23-497, one chain of several): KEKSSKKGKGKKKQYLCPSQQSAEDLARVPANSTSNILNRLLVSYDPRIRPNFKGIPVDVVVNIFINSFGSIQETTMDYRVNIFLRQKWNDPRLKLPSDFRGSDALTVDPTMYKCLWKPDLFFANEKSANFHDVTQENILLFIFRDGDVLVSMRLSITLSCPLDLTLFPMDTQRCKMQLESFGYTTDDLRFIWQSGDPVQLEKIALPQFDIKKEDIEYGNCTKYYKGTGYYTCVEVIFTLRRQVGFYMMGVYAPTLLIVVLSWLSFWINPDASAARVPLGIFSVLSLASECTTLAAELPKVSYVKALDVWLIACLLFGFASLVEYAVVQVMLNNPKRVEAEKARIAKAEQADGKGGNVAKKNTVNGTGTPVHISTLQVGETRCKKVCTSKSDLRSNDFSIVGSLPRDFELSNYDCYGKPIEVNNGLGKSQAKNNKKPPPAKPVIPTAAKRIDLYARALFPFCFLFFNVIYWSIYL
Description: as §1, §2, §3, §4, §5

[5] = tested on: α2 GlyRs; details: read-out: mean value of EC50 for glycine; ref Maleeva et al., 2015; cited from earlier work

T1 sequence (P48167 23-497, one chain of several): as above

Row | Molecule | current, % from the control [1] [%] | amplitude of current, % of the control [2] [%] | amplitude of current, % of the control [3] [%] | current, % from the control [4] [%] | EC50 [5] [µM]
1 | picrotoxin [PTX] | 75 ± 2 | 27 ± 3 | 3 ± 1 | 41 ± 4 | 
2 | NCC(=O)O [glycine] |  |  |  |  | 42 ± 2
